Measured values published in patent US20030040515A1, “Regulation of platelet adhesion and aggregation” (priority 2002, published 2003).
Like-named read-outs stand apart in the source and are kept apart here. Non-standard residues stand in square brackets, D forms with d. Residues, ends and D or L forms follow the SMILES beside them. *: point of attachment. Sta = CC(C)C[C@H](N)[C@@H](O)CC(=O)O; Isovaleryl = CC(C)CC(=O)*

Experiments:
[1] = tested on: vWF depolymerizing activity of BAECcm; assay: Inhibitor profile of the vWF depolymerizing activity of BAEC conditioned medium; format: biochemical
vWF = molecular target: T1, vWF (Homo sapiens, UniProt P04275); assay: Reduction in average multimer size of vWF in TTP plasma (agarose gel, collagen binding/vWF antigen); format: biochemical; details: chelation of Ca2+
T1 construct: from tissue; host or cells: plasma of a TTP patient (vWF); human platelet concentrates (TSP-1)
Method: TTP plasma was incubated with 20 mM Hepes, 0.14M NaCl, 1 mM CaCl2, 1 mM MgCl2, pH 7.4 buffer, conditioned media of HMEC-1 cells or the Hepes buffer containing TSP-1 for 1 or 24 hours at 37° C. Aliquots of the reactions were diluted 10-fold in the Hepes buffer and assayed for collagen binding affinity and vWF antigen as described by Favaloro et al. (1991). On some occasions, aliquots of the reactions were resolved on 1% agarose gel electrophoresis (Ruggeri and Zimmerman, 1980), transferred to PVDF membrane (DuPont NEN, Boston, Mass.), blotted with 2 μg per ml of horse radish peroxidase conjugated anti-vWF polyclonal antibodies (DAKO Corporation, Carpinteria, Calif.) and visualized using chemiluminescence (DuPont NEN, Boston, Mass.).
TSP-1 is a major component of platelet α-granules which is secreted upon platelet activation and aggregation. TSP-1 was purified to homogeneity from pooled outdated human platelet concentrates (Murphy-Ullrich and Mosher. 1985; Hogg et al., 1997) and tested for vWF reductase activity. Buffers containing 0.1 mM CaCl2 were used throughout the chromatographic purification of TSP1. […] In particular, the very large multimers were lost (see bracket in FIG. 3A). […] TSP-1-mediated reduction in vWF multimer size was concentration- and time-dependent (FIG. 3B). Three different preparations of platelet TSP-1 had the same vWF reducing activity (not shown). It is noteworthy that the molar ratio of TSP-1 to vWF influenced the extent of reduction in vWF multimer size (FIG. 3B). The vWF reductase activity in endothelial cell conditioned medium is inhibited by EDTA. In accordance with this observation, chelation of Ca^2+ with EDTA ablated the vWF reductase activity of TSP-1 (not shown).

purified vWF [2] = molecular target: T2, purified vWF (Homo sapiens, UniProt P04275); assay: MPB labelling assay for reduction of vWF disulfide bond(s) / formation of new thiols in vWF; format: biochemical; parameters: Purified vWF from human plasma was obtained from the Baker Medical Research Institute; tissue Baker Medical Research Institute, Melbourne (vWF); host or cells: human plasma (vWF); human platelet concentrates (TSP-1); details: chelation of Ca2+ in the reactions
Method: The biotin-linked maleimide, MPB, was used to measure reduction of vWF disulfide bond(s) in BAECcm. […] Free thiol(s) formed in vWF by reduction of disulfide bonds bond(s) were labelled with MPB (100 μM) and the unreacted MPB was quenched with GSH (200 μM). N-ethylmaleimide reacts rapidly with free thiols with a second order rate constant of ˜10^4 M^−1s^−1 at pH 8 (Torchinski and Dixon, 1974). Therefore, the half life for reaction of free thiols in vWF with the maleimide moiety of MPB was anticipated to be in the order of a few seconds. Aliquots of the reactions containing MPB-labelled vWF were incubated in ELISA plate wells coated with anti-vWF polyclonal antibodies. The adsorbed vWF was incubated with streptavidin peroxidase to measure the incorporated MPB. The control for vWF labelling was incubation and labelling of BAECcm alone, prior to addition of vWF. This reaction represented the contribution to the assay of MPB labelling of endogenous vWF and/or other vWF binding proteins in the BAECcm. […]
Reduction of disulfide bonds in vWF was anticipated to result in a net increase in free thiols in the vWF population. […] The MPB-labeled vWF was incubated in ELISA plate wells coated with anti-human vWF polyclonal antibodies and the biotin label was detected using StreptABComplex/HRP (DAKO Corporation, Carpinteria, Calif.).

plasma vWF = plasma vWF (Homo sapiens, UniProt P04275); details: GSH 20 μM added to BAECcm
Method: To test whether exogenous GSH could augment vWF depolymerization by BAECcm, plasma vWF was incubated with BAECcm, or BAECcm and GSH (20 μM), and multimer size measured by either agarose gel electrophoresis or collagen binding.

purified vWF [3] = molecular target: T2, purified vWF; assay: Effect of purified reductants on affinity of purified vWF for collagen; format: biochemical; details: 24 hours at 37° C.; for effect on vWF collagen affinity: PDI at 10 nM
Method: Confluent HUVEC's were washed with M199 without FCS and incubated in M199 for up to 8.5 hours. The HUVECS were stimulated to release vWF by adding […] human α-thrombin after 0.5 hours. The thrombin was quenched after 2 hours incubation by adding 5 mM D-Phe-Pro-Arg-chloromethyl ketone. Samples of the conditioned medium were collected at discrete time intervals and analyzed for vWF by 1% agarose gel electrophoresis and Western blotting or vWF antigen levels and collagen binding affinity (not shown). vWF antigen levels were determined using ELISA by capturing the vWF with adsorbed anti-vWF polyclonal antibodies and detecting using peroxidase conjugated anti-vWF polyclonal antibodies (Favoloro et al., 1991). Collagen binding affinity was assessed by incubating the vWF in plastic wells coated with type I/III collagen for 1 hour and measuring the bound vWF using peroxidase conjugated anti-vWF antibodies (Favoloro et al., 1991). Large vWF multimers bind to collagen with up to ˜100-fold higher affinity than smaller multimers, therefore affinity for collagen is a useful indicator of average vWF multimer size.
The effect of incubation of purified vWF with GSH, PDI, or GSH and PDI, for 24 hours at 37° C. on the affinity of vWF for collagen was analysed. […] The half-maximal effect of GSH on vWF collagen affinity was ˜20 μM. […] The half-maximal effect of GSH in the presence on PDI on vWF collagen affinity was similar to that of GSH alone, ˜20 μM.

purified vWF [4] = molecular target: T2, purified vWF; assay: Effect of purified reductants or thiol reagents on the average multimer size of purified vWF (agarose gel electrophoresis); format: biochemical; parameters: Purified vWF from human plasma was obtained from the Baker Medical Research Institute; tissue Baker Medical Research Institute, Melbourne; host or cells: human plasma; details: for effect on average multimer size of purified vWF: GSH 20 μM, PDI 10 nM, thioredoxin 10 nM, 24 hours at 37° C.
[5] = measured by agarose gel electrophoresis or collagen binding, BAECcm treated with agent

NCCc1ccc(S(=O)(=O)F)cc1 [4-(2-aminoethyl)benzenesulfonylfluoride]
effect on vWF depolymerizing activity of BAECcm [1, 5]: not inhibited

CC(C)C[C@H](NC(=O)[C@H]1O[C@@H]1C(=O)O)C(=O)NCCCCN=C(N)N [E-64]
effect on vWF depolymerizing activity of BAECcm [1, 5]: inactivated

O=C(O)CN(CCN(CC(=O)O)CC(=O)O)CC(=O)O [EDTA]
effect on vWF depolymerizing activity of BAECcm [1]: ablated activity | effect on vWF reductase activity of TSP-1 (vWF): ablated | effect on TSP-1-catalysed formation of free thiols in vWF (purified vWF [2]): ablated

N[C@@H](CCC(=O)N[C@@H](CS)C(=O)NCC(=O)O)C(=O)O [GSH, reduced glutathione]
vWF depolymerization over that by BAECcm alone (plasma vWF; agarose gel electrophoresis): small increase | collagen affinity of vWF (plasma vWF; p<0.05): significant reduction | effect on vWF collagen affinity (purified vWF [3]): reduced the collagen affinity of vWF | EC50 (purified vWF [3]; GSH alone, read-out: half-maximal effect on vWF collagen affinity): ~20 µM | EC50 (purified vWF [3]; GSH in the presence of PDI, read-out: half-maximal effect on vWF collagen affinity in the presence of PDI): ~20 µM | effect on average multimer size of purified vWF (purified vWF [4]): reduction of the average multimer size of vWF

NC(=O)CI [IAM, iodoacetamide]
effect on vWF depolymerizing activity of BAECcm [1, 5]: inactivated | effect on average multimer size of vWF (purified vWF [4]; incubation of vWF with IAM or NEM alone): did not have any discernible effect

CC(C)C[C@H](NC(=O)[C@@H](NC(=O)N[C@@H](Cc1ccccc1)C(=O)O)[C@@H]1CCN=C(N)N1)C(=O)N[C@H](C=O)Cc1ccccc1 [chymostatin]
effect on vWF depolymerizing activity of BAECcm [1, 5]: not inhibited

CC(=O)N[C@@H](CC(C)C)C(=O)N[C@@H](CC(C)C)C(=O)N[C@H](C=O)CCCNC(=N)N [leupeptin]
effect on vWF depolymerizing activity of BAECcm [1, 5]: not inhibited

CC(C)CC(=O)N[C@H](C(=O)N[C@H](C(=O)N[C@@H](CC(C)C)[C@@H](O)CC(=O)N[C@@H](C)C(=O)N[C@@H](CC(C)C)[C@@H](O)CC(=O)O)C(C)C)C(C)C [pepstatin] (Isovaleryl-VV[Sta]A[Sta]-OH)
effect on vWF depolymerizing activity of BAECcm [1, 5]: not inhibited

CC(C)C[C@H](NP(=O)(O)O[C@@H]1O[C@@H](C)[C@H](O)[C@@H](O)[C@H]1O)C(=O)N[C@@H](Cc1c[nH]c2ccccc12)C(=O)O [phosphoramidon]
effect on vWF depolymerizing activity of BAECcm [1, 5]: not inhibited

PDI: purified reductant
effect on vWF collagen affinity (purified vWF [3]): reduced vWF collagen affinity to the same extent as 20 μM GSH | effect on average multimer size of purified vWF (purified vWF [4]): reduction of the average multimer size of vWF

aprotinin
effect on vWF depolymerizing activity of BAECcm [1, 5]: not inhibited

thioredoxin
effect on average multimer size of purified vWF (purified vWF [4]): reduction of the average multimer size of vWF
